The first series is described as follows: GC/MS of serum sample: number of times of freezing and thawing (Table I). The settings on record: 10 times of freezing and thawing; detection intensity relative to 1 at 2 times. On the set-up: key to Rate of increase or decrease / Rate of increase or decrease (first value, increase): detection intensity relative to 2 freeze-thaw cycles = 1. The series is classed as physicochemical, human. On the procedure:
(§1) After standing, the blood sample was subjected to centrifugation under a condition of room temperature, 3500 rpm, and 5 minutes. […] After centrifugation, the blood-collecting vessel was left to stand at room temperature, and the serum was isolated during this time. Here, in order to investigate how the detection intensity of molecules contained in the sample was affected in cases where the time during which the blood-collecting vessel was left at room temperature was set to 1 hour and 6 hours as compared to that in a case where the time was set to 30 minutes, preparations were performed under the respective conditions of 30 minutes, 1 hour, and 6 hours. The obtained serum sample was frozen and stored. Here, in order to investigate how the detection intensity of molecules contained in the sample was affected in cases where freezing and thawing was performed 4 times, 6 times, and 10 times after freezing as compared to that in a case where freezing and thawing was performed 2 times after freezing, freezing and thawing was performed under the respective conditions of 2, 4, 6, and 10 times.
(§2) Frozen blood plasma samples and serum samples were subjected to GC/MS or LC/MS. In GC/MS, the blood plasma samples and serum samples were subjected to methoxymation and trimethylsilylation and then introduced to GC-MS.
(§3) GC/MS was conducted using GCMS·TQ8040 (Shimadzu Corporation) that was a GC·MS equipped with AOC·20i (Shimadzu Corporation) as an autosampler.
(§4) Column: BPX5 (inner diameter of 0.25 mm, length of 30 m, and film thickness of 0.25 μm) (SGE)
(§5) Column temperature: maintained at 60° C. for 2 minutes, then raised at 15° C./min, and maintained at 330° C. for 3 minutes.
(§6) Inlet temperature: 250° C.
(§7) Carrier gas control mode: constant linear velocity of 39.0 cm/sec
(§8) Sample introduction method: split (split ratio of 30:1) Injection volume: 1 μL
(§9) Ionization method: electron ionization
(§10) Ionization current: 60 μA
(§11) Interface temperature: 280° C.
(§12) Ion source temperature: 200° C.
(§13) Mode: multiple reaction monitoring (MRM)
The rate of increase or decrease in Table I is the value of detection intensity relative to 1 that is the detection intensity in a case where the number of times of freezing and thawing is set to 2 times.
Turning to `OC[C@@H](O)[C@@H](O)[C@H](O)[C@@H](O)CO` [Sorbitol], the “Rate of increase or decrease” value is reported as 0.61.
On the same count and under the same terms, then `CCCCCCCCCCCCCCCCC(=O)O` [Margaric acid, margaric acid], with 1.35; and `Cc1ncc(CO)c(CN)c1O` [Pyridoxamine], with 0.61.
On to `OC[C@@H](O)[C@@H](O)CO` [Meso-erythritol], for which the “Rate of increase or decrease” value was found to be 0.69.
The same measure, in the same setting: the value for `CC(=O)N[C@@H](CCC(N)=O)C(=O)O` [N-acetylglutamine] was 2.17; that for `CC(=NO)C(=O)O` [Pyruvic oxime] was 1.69; that for `N[C@H]1C(O)O[C@H](CO)[C@@H](O)[C@@H]1O` (stereo partly drawn) [Glucosamine] was 2.43.

The series is the same for the next values; noted with them: serum sample, GC/MS; detection intensity changed by 30% or more vs 2 times of freezing and thawing.
As for `OC[C@@H](O)[C@@H](O)[C@H](O)[C@@H](O)CO` [Sorbitol], the “Number of times when compound is affected” value (from here on “Number of times”) was 10 times.
`CCCCCCCCCCCCCCCCC(=O)O` [Margaric acid, margaric acid]: the “Number of times” value is given as 10 times.
As to `Cc1ncc(CO)c(CN)c1O` [Pyridoxamine], the “Number of times” value worked out at 10 times.
With `OC[C@@H](O)[C@@H](O)CO` [Meso-erythritol], the “Number of times” value is reported as 10 times.
On to `CC(=O)N[C@@H](CCC(N)=O)C(=O)O` [N-acetylglutamine], for which the “Number of times” value was determined as 10 times.
Same read-out and setting: the value for `CC(=NO)C(=O)O` [Pyruvic oxime] was 10 times; that for `N[C@H]1C(O)O[C@H](CO)[C@@H](O)[C@@H]1O` (stereo partly drawn) [Glucosamine] was 10 times.

The series is the same for the next values; noted with them: serum sample, GC/MS; detection intensity vs 2 times of freezing and thawing.
In the case of `OC[C@@H](O)[C@@H](O)[C@H](O)[C@@H](O)CO` [Sorbitol], the Increase or decrease result is listed as “Decrease”.
Same read-out and setting: the value for `CCCCCCCCCCCCCCCCC(=O)O` [Margaric acid, margaric acid] was “Increase”.
For `Cc1ncc(CO)c(CN)c1O` [Pyridoxamine], the Increase or decrease entry is on record as “Decrease”.
Same read-out and setting: the value for `OC[C@@H](O)[C@@H](O)CO` [Meso-erythritol] was “Decrease”.
In the case of `CC(=O)N[C@@H](CCC(N)=O)C(=O)O` [N-acetylglutamine], the Increase or decrease entry is “Increase”.
As to `CC(=NO)C(=O)O` [Pyruvic oxime], the Increase or decrease entry is “Increase”.
Turning to `N[C@H]1C(O)O[C@H](CO)[C@@H](O)[C@@H]1O` (stereo partly drawn) [Glucosamine], the Increase or decrease entry is given as “Increase”.

The nature of a further series: GC/MS of serum sample: time from centrifugation to isolation (Table H). The note with it: detection intensity relative to 1 at 30 minutes, after 6 hours. In kind it is physicochemical, human. Also on record: key to Rate of increase or decrease / Rate of increase or decrease (first value, increase): detection intensity relative to 1 at 30 min centrifugation-to-isolation. On the procedure:
as §1, §2, §3, §4, §5, §6, §7, §8, §9, §10, §11, §12, §13
The rate of increase or decrease in Table H is the value of detection intensity relative to 1 that is the detection intensity in a case where the time from centrifugation to isolation is set to 30 minutes.
For `CC(=O)N[C@@H](CCC(N)=O)C(=O)O` [N-acetylglutamine], the “Rate of increase or decrease” value worked out at 1.58.
Still for that read-out and setting: then `CC(=NO)C(=O)O` [Pyruvic oxime], with 1.34; and `N[C@H]1C(O)O[C@H](CO)[C@@H](O)[C@@H]1O` (stereo partly drawn) [Glucosamine], with 1.69.

The same series, now with this note: detection intensity, after 6 hours vs 30 minutes.
On to `CC(=O)N[C@@H](CCC(N)=O)C(=O)O` [N-acetylglutamine], for which the Increase or decrease entry is recorded as “Increase”.
The same measure, in the same setting: then `CC(=NO)C(=O)O` [Pyruvic oxime], with “Increase”; and `N[C@H]1C(O)O[C@H](CO)[C@@H](O)[C@@H]1O` (stereo partly drawn) [Glucosamine], with “Increase”.

The next series can be described thus: GC/MS of serum sample: time from blood collection to centrifugation (Table G). The note with it: detection intensity relative to 1 at 15 minutes, blood collection to centrifugation, after 4 hours. In kind it is physicochemical, human. Here is the method: as §1, §2, §3, §4, §5, §6, §7, §8, §9, §10, §11, §12, §13
The rate of increase or decrease in Table G is the value of detection intensity relative to 1 that is the detection intensity in a case where the time from blood collection to centrifugation is set to 15 minutes.
Take `Cc1ncc(CO)c(CN)c1O` [Pyridoxamine]: the “Rate of increase or decrease” value is listed as 1.52.

Staying with this series, now noted: detection intensity relative to 1 at 15 minutes, blood collection to centrifugation, after 8 hours.
For `OC[C@@H](O)[C@@H](O)[C@H](O)[C@@H](O)CO` [Sorbitol], the “Rate of increase or decrease” value turned out to be 1.54.
As to `OC[C@@H](O)[C@@H](O)CO` [Meso-erythritol], the “Rate of increase or decrease” value is on record as 0.66.

Staying with this series, now noted: detection intensity, blood collection to centrifugation, after 4 hours vs 15 minutes.
For the molecule `Cc1ncc(CO)c(CN)c1O` [Pyridoxamine], the Increase or decrease entry is listed as “Increase”.

The same series, now with this note: detection intensity, blood collection to centrifugation, after 8 hours vs 15 minutes.
In the case of `OC[C@@H](O)[C@@H](O)[C@H](O)[C@@H](O)CO` [Sorbitol], the Increase or decrease result is listed as “Increase”.
Same read-out and setting: then `OC[C@@H](O)[C@@H](O)CO` [Meso-erythritol], with “Decrease”.

The record behind these values is US20220146526A1, “METHOD FOR EVALUATING SAMPLE, ANALYSIS METHOD, METHOD FOR DETECTING DEGRADED SAMPLE, MARKER FOR DETECTING DEGRADED BLOOD PLASMA SAMPLE, AND MARKER FOR DETECTING DEGRADED SERUM SAMPLE” (SHIMADZU CORPORATION, priority 2019, published 2022).
